Source: patent publication US20100280975A1, “SYSTEMS FOR CLINICAL TRIALS” (WisTa Laboratories Ltd., priority 2007, published 2010)
Several values for one entry are separate records, joined by “and”; a condition that tells them apart may be missing. Equal values may be shown once.

System: mild and moderate dementia of the Alzheimer type
Experiment: rember™ Phase 2 study: ADAS-cog change over 24 weeks
Details: for Estimate, change in ADAS-cog score vs intercept, mixed effects / Estimate, change in ADAS-cog score vs intercept, least squares / Estimate, change in ADAS-cog score vs intercept, linear least squares / Estimate, change in ADAS-cog score vs intercept, linear mixed effects: with interaction term; for Estimate, ADAS-cog change vs placebo, LM (ANCOVA) analysis / Estimate, change in ADAS-cog score vs intercept (placebo), linear least squares / Estimate, change in ADAS-cog score vs intercept (placebo), linear mixed effects: without interaction term; for Estimate, ADAS-cog change vs placebo, LM (ANCOVA) analysis: 24-week assessment data only
[1] = ITT/LOCF, week 24, CDR-mild, 60 mg tid
[2] = ITT/LOCF, week 24, CDR-mild, low (100 mg) tid
[3] = ITT/LOCF, week 24, CDR-moderate, 30 mg tid
[4] = ITT/LOCF, week 24, CDR-moderate, 60 mg tid
[5] = ITT/LOCF, week 24, CDR-moderate, low (100 mg) tid
[6] = ITT/LOCF, week 24, low (100 mg) tid
[7] = ITT/OC, CDR-moderates, mixed-effects model, low (100 mg) tid
[8] = ITT/OC, week 24, CDR-mild, 30 mg tid
[9] = ITT/OC, week 24, CDR-mild, 60 mg tid
[10] = ITT/OC, week 24, CDR-mild, low (100 mg) tid
[11] = ITT/OC, week 24, CDR-moderate, 30 mg tid
[12] = ITT/OC, week 24, CDR-moderate, 60 mg tid
[13] = ITT/OC, week 24, CDR-moderate, low (100 mg) tid
[14] = ITT/OC, week 24, low (100 mg) tid

CN(C)c1ccc2nc3ccc(=[N+](C)C)cc-3sc2c1 [rember™, methylthioninium chloride]
Estimate, change in ADAS-cog score vs intercept, mixed effects (ITT/LOCF, week 24, CDR-mild, 30 mg tid): 0.46 ADAS-cog units
Estimate, change in ADAS-cog score vs intercept, least squares [1]: −0.73 ADAS-cog units
Estimate, change in ADAS-cog score vs intercept, mixed effects [1]: −0.73 ADAS-cog units
Estimate, change in ADAS-cog score vs intercept, least squares [2]: −0.18 ADAS-cog units
Estimate, change in ADAS-cog score vs intercept, mixed effects [2]: −0.18 ADAS-cog units
Estimate, change in ADAS-cog score vs intercept, least squares [3]: −1.05 ADAS-cog units
Estimate, change in ADAS-cog score vs intercept, mixed effects [3]: −1.05 ADAS-cog units
Estimate, change in ADAS-cog score vs intercept, least squares [4]: −3.70 ADAS-cog units
Estimate, change in ADAS-cog score vs intercept, mixed effects [4]: −3.70 ADAS-cog units
Estimate, change in ADAS-cog score vs intercept, least squares [5]: 1.06 ADAS-cog units
Estimate, change in ADAS-cog score vs intercept, mixed effects [5]: 1.06 ADAS-cog units
Estimate, ADAS-cog change vs placebo, LM (ANCOVA) analysis (ITT/LOCF, 30 mg tid): −0.04 ADAS-cog units
Estimate, ADAS-cog change vs placebo, LM (ANCOVA) analysis (ITT/LOCF, low (100 mg) tid): −0.78 ADAS-cog units
Estimate, change in ADAS-cog score vs intercept (placebo), linear least squares (ITT/LOCF, week 24, 30 mg tid): 0.04 ADAS-cog units
Estimate, change in ADAS-cog score vs intercept (placebo), linear mixed effects (ITT/LOCF, week 24, 30 mg tid): 0.04 ADAS-cog units
Estimate, change in ADAS-cog score vs intercept (placebo), linear least squares (ITT/LOCF, week 24, 60 mg tid): −1.18 ADAS-cog units
Estimate, change in ADAS-cog score vs intercept (placebo), linear mixed effects (ITT/LOCF, week 24, 60 mg tid): −1.18 ADAS-cog units
Estimate, change in ADAS-cog score vs intercept (placebo), linear least squares [6]: −0.03 ADAS-cog units
Estimate, change in ADAS-cog score vs intercept (placebo), linear mixed effects [6]: −0.03 ADAS-cog units
ADAS-cog change from baseline at 24 weeks (ITT/OC, CDR-moderates, mixed-effects model, 30 mg tid): 1.03 ADAS-cog units
ADAS-cog change from baseline at 24 weeks (ITT/OC, CDR-moderates, mixed-effects model, 60 mg tid): −0.36 ADAS-cog units
ADAS-cog change from baseline at 24 weeks [7]: 4.6 ADAS-cog units and 4.63 ADAS-cog units
ADAS-cog effect size at 24 weeks (vs placebo) [7]: −0.42 ADAS-cog units
Estimate, change in ADAS-cog score vs intercept, linear least squares [8]: 0.43 ADAS-cog units
Estimate, change in ADAS-cog score vs intercept, linear mixed effects [8]: 0.33 ADAS-cog units
Estimate, change in ADAS-cog score vs intercept, linear least squares [9]: −0.66 ADAS-cog units
Estimate, change in ADAS-cog score vs intercept, linear mixed effects [9]: −0.77 ADAS-cog units
Estimate, change in ADAS-cog score vs intercept, linear least squares [10]: −0.05 ADAS-cog units
Estimate, change in ADAS-cog score vs intercept, linear mixed effects [10]: −0.21 ADAS-cog units
Estimate, change in ADAS-cog score vs intercept, linear least squares [11]: 1.11 ADAS-cog units
Estimate, change in ADAS-cog score vs intercept, linear mixed effects [11]: −1.09 ADAS-cog units
Estimate, change in ADAS-cog score vs intercept, linear least squares [12]: −2.74 ADAS-cog units
Estimate, change in ADAS-cog score vs intercept, linear mixed effects [12]: −3.23 ADAS-cog units
Estimate, change in ADAS-cog score vs intercept, linear least squares [13]: 0.99 ADAS-cog units
Estimate, change in ADAS-cog score vs intercept, linear mixed effects [13]: 1.13 ADAS-cog units
Estimate, change in ADAS-cog score vs intercept (placebo), linear least squares (ITT/OC, week 24, 30 mg tid): 0.00 ADAS-cog units
Estimate, change in ADAS-cog score vs intercept (placebo), linear mixed effects (ITT/OC, week 24, 30 mg tid): −0.07 ADAS-cog units
Estimate, change in ADAS-cog score vs intercept (placebo), linear least squares (ITT/OC, week 24, 60 mg tid): −0.95 ADAS-cog units
Estimate, change in ADAS-cog score vs intercept (placebo), linear mixed effects (ITT/OC, week 24, 60 mg tid): −1.13 ADAS-cog units
Estimate, change in ADAS-cog score vs intercept (placebo), linear least squares [14]: 0.08 ADAS-cog units
Estimate, change in ADAS-cog score vs intercept (placebo), linear mixed effects [14]: −0.04 ADAS-cog units
mean effect sizes in moderate subjects over 24 weeks (severity as interaction term, CDR-moderate, 60 mg dose): −2.7 to −3.7 ADAS-cog units
